Measurements as given in patent US5081107A, “Polypeptide compounds” (Imperial Chemical Industries PLC, priority 1988, dated 1992).
Non-standard residues stand in square brackets, D forms with d. Residues, ends and D or L forms follow the SMILES beside them. *: point of attachment. Isonicotinoyl = O=C(c1ccncc1)*; Cbz = O=C(OCc1ccccc1)*

Key:
[1] = test system: bombesin-induced stimulation of the secretion of the enzyme amylase; settings: rat, in vivo
Description: (c) An in vivo test involving the measurement of the antagonism of the bombesin-induced stimulation of the secretion of the enzyme amylase into the pancreatic duct of the rat by a test compound administered orally, sub-cutaneously or intravenously. Bombesin and the test compound can be administered concomitantly or the test compound can be predosed at any convenient interval, for example 30, 60, 90, 120, 150 or 180 minutes, before bombesin is dosed. Amylase was measured by analysis of the conversion of starch into maltose, on incubation of the starch/amylase mixture at 30° C. for 15 minutes, using a spectrophotometric assay as originally described by P. Bernfield in `Methods in Enzymology` Vol. I, p17 (Editors Colowick and Kaplan, Academic Press, New York, 1955). Bombesin (5 micrograms/kg, intravenously) causes a large, but submaximal, increase of amylase secretion within 30 minutes.

[2] = test system: mouse Swiss 3T3-fibroblast cells; type: cell-based; settings: 3 h
Description: (b) An in vitro assay which assesses the ability of a test compound to inhibit the Neuromedin C stimulated mitogenesis of mouse Swiss 3T3-fibroblast cells as determined by the uptake of [^3 H]-thymidine. The test is similar to those described by N. Corps., L. Rees and K. Brown, Biochem. Journal, 1985, 231, 781 and I. Zachary and E. Rozengurt, Proc. Nat. Acad. Sci. USA, 1985, 82, 7616, except that GRP (18-27) (0.2 or 0.4nM) was used to stimulate growth and the test compounds were dissolved in an assay medium containing 0.1% bovine serum albumin and 0.4% dimethylsulphoxide and […]

[3] = molecular target: T1, bombesin receptor of mouse Swiss 3T3-fibroblast cells (Mus musculus, UniProt P21729); assay: Test (a): in vitro binding assay, displacement of [I125]GRP; settings: ambient temperature, 1 hour
T1 construct: the bombesin receptor of mouse Swiss 3T3-fibroblast cells; endogenous in cells; host or cells: mouse Swiss 3T3 fibroblast cells
Description: (a) An in vitro binding assay which assesses the ability of a test compound to displace radiolabelled gastrin releasing peptide ([I^125 ]GRP) from the bombesin receptor of mouse Swiss 3T3-fibroblast cells. The test is similar to that described by I. Zachary and E. Rozengurt, Proc. Nat. Acad. Sci. USA, 1985, 82, 7616, except that the cells are incubated at ambient temperature for 1 hour;

[4] = test system: bombesin-induced hypothermia; settings: rat; cited from earlier work
[5] = test system: guinea pig pancreatic acini; settings: cited from earlier work

T1 sequence (P21729 whole entry): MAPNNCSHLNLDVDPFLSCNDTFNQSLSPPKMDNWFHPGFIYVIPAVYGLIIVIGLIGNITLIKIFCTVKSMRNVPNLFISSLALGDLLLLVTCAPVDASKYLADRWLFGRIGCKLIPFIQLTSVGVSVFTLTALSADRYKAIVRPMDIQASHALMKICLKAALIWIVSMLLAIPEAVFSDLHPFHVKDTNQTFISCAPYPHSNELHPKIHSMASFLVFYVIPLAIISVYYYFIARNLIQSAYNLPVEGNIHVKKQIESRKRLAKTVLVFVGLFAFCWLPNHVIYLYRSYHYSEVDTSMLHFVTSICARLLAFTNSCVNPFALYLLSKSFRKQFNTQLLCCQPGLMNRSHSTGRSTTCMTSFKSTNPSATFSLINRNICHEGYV

| Compound | IC50 in test (c) [1] | IC50 [2] | inhibition of bombesin-stimulated secretion of amylase [5] | also measured |
| --- | --- | --- | --- | --- |
| COC(=O)[C@H](CC(C)C)NC(=O)[C@H](Cc1c[nH]cn1)NC(=O)[C@@H](C)NC(=O)[C@@H](NC(=O)[C@H](C)NC(=O)[C@H](Cc1c[nH]c2ccccc12)NC(=O)[C@H](Cc1c[nH]cn1)NC(=O)c1ccncc1)C(C)C [4-Pyridyl--CO--His--Trp--Ala--Val--D--Ala--His--Leu--OMe] (Isonicotinoyl-HWAV[dA]HL-OMe) | < 0.5 mg/kg | 0.7 nM |  | IC50 [3]: 1.5 nM |
| CNC(=O)[C@H](CC(C)C)NC(=O)[C@H](CCCCNC(=O)OCc1ccccc1)NC(=O)[C@@H](C)NC(=O)[C@@H](NC(=O)[C@H](C)NC(=O)[C@H](Cc1c[nH]c2ccccc12)NC(=O)[C@H](Cc1c[nH]cn1)NC(=O)c1ccncc1)C(C)C [4-Pyridyl-CO--His--Trp--Ala--Val--D-Ala--Lys(Z)--Leu--NHMe] (Isonicotinoyl-HWAV[dA]K(Cbz)L-NHMe) | < 0.02 mg/kg | 0.2 nM |  |  |
| [D--Glp^7, D--Ala^11, Ala^14 ]bombesin (7-14) |  |  |  | antagonism of bombesin-induced hypothermia [4]: partial antagonist |
| [D--Phe^12, Leu^14 ]bombesin |  |  | inhibited |  |
| [D-Phe^12 ]bombesin |  |  | inhibited |  |
| [Tyr^4, D--Phe^12 ]bombesin |  |  | inhibited |  |
